Measurements taken from paper PMC11909056, “Investigation of cholinesterase and α-glucosidase enzyme activities, and molecular docking and dft studies for 1,2-disubstituted cyclopentane derivatives with phenyl and benzyl units” (Molecular Diversity, 2024).

Columns and labels:
[1] = molecular target: T1, Butyrylcholinesterase (BChE) (Equus caballus, UniProt P81908); experiment: biochemical
T1 construct: Butyrylcholinesterase from equine serum (CAS No.: 9001–08-5); from tissue; host or cells: equine serum
T1 sequence (P81908 whole entry): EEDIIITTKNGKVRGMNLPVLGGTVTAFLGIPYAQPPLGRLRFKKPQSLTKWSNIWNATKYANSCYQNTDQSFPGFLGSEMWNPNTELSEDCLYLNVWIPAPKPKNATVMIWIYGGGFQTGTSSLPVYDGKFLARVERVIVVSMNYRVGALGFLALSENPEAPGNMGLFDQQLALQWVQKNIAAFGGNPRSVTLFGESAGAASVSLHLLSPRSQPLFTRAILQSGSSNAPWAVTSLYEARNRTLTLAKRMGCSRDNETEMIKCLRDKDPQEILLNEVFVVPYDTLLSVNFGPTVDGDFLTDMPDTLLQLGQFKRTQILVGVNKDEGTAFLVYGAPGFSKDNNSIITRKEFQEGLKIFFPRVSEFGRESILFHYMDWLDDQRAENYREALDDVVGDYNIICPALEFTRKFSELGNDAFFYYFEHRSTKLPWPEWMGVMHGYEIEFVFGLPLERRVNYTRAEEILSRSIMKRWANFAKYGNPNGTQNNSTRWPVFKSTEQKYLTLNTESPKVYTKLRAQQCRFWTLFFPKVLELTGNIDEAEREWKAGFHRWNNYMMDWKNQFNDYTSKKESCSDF
Method: (§1) The Ellman approach was employed to examine the impact of synthetic chemicals on the ability to inhibit AChE and BChE activity. AChI/BChI and DTNB were used to quantify the AChE/BChE activity. […] For different concentrations of the sample solution, 100 μL of buffer (1 M, Tris/HCl, pH 8.0) were used to dissolve 10 μL of the sample solution. […] The incubation was followed by the addition of DTNB (50 μL, 0.5 mM). Lastly, to start the reaction, 50 μL of bChI/aChI were added. […] Then, the activities of AChE/BChE were evaluated.

[2] = molecular target: Acetylcholinesterase (AChE) (Electrophorus electricus, UniProt O42275); experiment: biochemical
Chain of Acetylcholinesterase (AChE) (O42275 24-633): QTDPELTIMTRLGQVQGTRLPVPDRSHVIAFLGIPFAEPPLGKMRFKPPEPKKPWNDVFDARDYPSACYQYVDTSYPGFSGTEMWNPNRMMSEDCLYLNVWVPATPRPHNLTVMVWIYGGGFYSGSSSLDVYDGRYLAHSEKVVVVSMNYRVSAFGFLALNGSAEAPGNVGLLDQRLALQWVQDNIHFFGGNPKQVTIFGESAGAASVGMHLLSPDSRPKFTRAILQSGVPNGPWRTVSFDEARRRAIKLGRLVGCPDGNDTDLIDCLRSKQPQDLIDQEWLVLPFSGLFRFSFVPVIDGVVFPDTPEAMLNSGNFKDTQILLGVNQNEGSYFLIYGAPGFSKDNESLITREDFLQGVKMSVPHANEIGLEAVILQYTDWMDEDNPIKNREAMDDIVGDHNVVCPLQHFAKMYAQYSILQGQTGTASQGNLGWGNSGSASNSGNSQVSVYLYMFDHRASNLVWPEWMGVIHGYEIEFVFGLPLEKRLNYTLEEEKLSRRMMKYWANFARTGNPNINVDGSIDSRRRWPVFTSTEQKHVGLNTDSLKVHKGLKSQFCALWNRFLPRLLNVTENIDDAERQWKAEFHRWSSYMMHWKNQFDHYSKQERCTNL
Method: as §1

α-Glucosidase = α-Glucosidase (Saccharomyces cerevisiae, UniProt P53341); experiment: α-glucosidase inhibition with p-NPG substrate (Tao et al. method); type: biochemical
Chain of α-Glucosidase (P53341 whole entry): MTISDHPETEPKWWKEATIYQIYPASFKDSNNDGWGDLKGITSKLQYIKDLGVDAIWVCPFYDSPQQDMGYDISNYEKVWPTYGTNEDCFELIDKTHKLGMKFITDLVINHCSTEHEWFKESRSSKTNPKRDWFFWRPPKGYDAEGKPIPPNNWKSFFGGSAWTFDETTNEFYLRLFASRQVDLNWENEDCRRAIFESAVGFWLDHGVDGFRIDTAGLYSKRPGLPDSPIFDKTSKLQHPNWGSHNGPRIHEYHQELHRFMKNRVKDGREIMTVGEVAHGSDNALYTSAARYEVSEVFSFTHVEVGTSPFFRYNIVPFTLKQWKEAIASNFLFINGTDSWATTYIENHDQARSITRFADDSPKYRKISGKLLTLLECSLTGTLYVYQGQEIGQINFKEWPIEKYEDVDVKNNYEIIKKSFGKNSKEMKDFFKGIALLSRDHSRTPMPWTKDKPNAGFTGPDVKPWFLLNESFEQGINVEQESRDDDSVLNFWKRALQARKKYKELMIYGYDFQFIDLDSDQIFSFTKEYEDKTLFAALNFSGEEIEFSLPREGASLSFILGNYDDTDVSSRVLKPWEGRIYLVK
Method: Samples were made by dissolving 20 mg in 20 mL (EtOH:H2O). It was initially combined in 5–200 μL of sample with 700 μL of phosphate buffer (0.15 u/mL, pH 7.4) and 20 μL of enzyme solution [31, 32]. After a pre-incubation period of 10 min at 35 °C, 50 μL of p-NPG was added as the reaction began. Additionally, following the pre-incubation, 50 μL of p-NPG in phosphate buffer (5 mM, pH = 7.4) was added, and the incubation was repeated at 35 °C. A curve was fitted to the data to determine the IC50 and Ki values. […] (pH: 7.4).

Row | SMILES | IC50 [1] [nM] | Ki [1] [nM] | IC50 [2] [nM] | Ki [2] [nM] | IC50 (α-Glucosidase) [nM] | Ki (α-Glucosidase) [nM]
1 | COc1ccc(C(=O)C2=C(c3ccc(OC)c(OC)c3OC)CCC2)c(OC)c1OC [Compound 4, (2,3,4-trimethoxyphenyl)(2-(2,3,4-trimethoxyphenyl)cyclopent-1-en-1-yl)methanone] | 414 | 403 ± 32.3 | 102 | 99.7 ± 11.4 | 41.6 | 48.9 ± 7.33
2 | COc1ccc(C(=O)C2CCC=C2c2ccc(OC)c(OC)c2OC)c(OC)c1OC (stereo not drawn) [Compound 5] | 187 | 176 ± 23.8 | 92.2 | 87.9 ± 7.27 | 39.6 | 44.7 ± 6.61
3 | COc1ccc(C(=O)CCCCC(=O)c2ccc(OC)c(OC)c2OC)c(OC)c1OC [Compound 6] | 225 | 212 ± 13.7 | 189 | 177 ± 22.6 | 27.2 | 29.1 ± 4.25
4 | COc1ccc(C(=O)CCCCC(=O)c2ccc(OC)c(OC)c2OC)c(O)c1OC [Compound 7] | 646 | 622 ± 35.1 | 644 | 632 ± 18.9 | 43.2 | 46.5 ± 6.34
5 | COc1ccc(C(=O)CCCCC(=O)c2ccc(OC)c(OC)c2O)c(O)c1OC [Compound 8] | 222 | 209 ± 14.7 | 174 | 171 ± 14.1 | 36.4 | 38.5 ± 4.25
6 | COc1c(Br)cc(C(=O)C(Br)CCC(Br)C(=O)c2cc(Br)c(OC)c(OC)c2O)c(O)c1OC (stereo not drawn) [Compound 9] | 450 | 428 ± 27.4 | 49.8 | 45.5 ± 7.35 | 21.1 | 25.5 ± 4.46
7 | COc1ccc(C2=C(/C(=N/NC(C)=O)c3ccc(OC)c(OC)c3OC)CCC2)c(OC)c1OC [Compound 10, (Z)-N'-((2,3,4-Trimethoxyphenyl)(2-(2,3,4-trimethoxyphenyl)cyclopent-1-en-1-yl)methylene)acetohydrazide] | 135 | 131 ± 14.5 | 205 | 196 ± 13.7 | 28.4 | 31.2 ± 5.54
8 | COc1ccc(CC2CCCC2c2ccc(OC)c(OC)c2OC)c(OC)c1OC (stereo not drawn) [Compound 11, 1,2,3-Trimethoxy-4-(2-(2,3,4-trimethoxybenzyl)cyclopentyl)benzene] | 155 | 145 ± 15.5 | 170 | 151 ± 13.3 | 33.4 | 38.1 ± 5.48
9 | COc1c(Br)c(Br)c(CC2CCCC2c2c(Br)c(Br)c(OC)c(OC)c2OC)c(OC)c1OC (stereo not drawn) [Compound 12, 1,2-Dibromo-3-(2-(2,3-dibromo-4,5,6-trimethoxybenzyl)cyclopentyl)-4,5,6-trimethoxybenzene] | 92.7 | 84.3 ± 9.92 | 65.5 | 61.1 ± 5.26 | 23.9 | 27.4 ± 5.17
10 | COc1c(Br)cc(C2CCCC2Cc2c(Br)c(Br)c(OC)c(OC)c2OC)c(OC)c1OC (stereo not drawn) [Compound 13, 1,2-Dibromo-3-((2-(5-bromo-2,3,4-trimethoxyphenyl)cyclopentyl)methyl)-4,5,6-trimethoxybenzene] | 217 | 205 ± 17.4 | 124 | 108 ± 5.14 | 31.6 | 35.6 ± 3.95
